From US20250057844A1, “METHODS OF TREATING NEOPLASTIC DISEASES” (SILLAJEN, INC., priority 2021, published 2025)
“Also recorded” adds a separate entry of the source.

Legend:
biotinylated PLK1 = biotinylated PLK1 (Homo sapiens, UniProt P53350); assay: Target residence time assay (Biacore T200 surface plasmon resonance), PLK1; assay type: binding; details: SPR, 22° C.
Description: The affinity, i.e. the equilibrium dissociation constant (KD) ([…]), of the compound of formula (I) against TTK and PLK1 were determined using a Biacore T200TM surface plasmon resonance instrument using recombinant expressed TTK kinase domain (amino acids 519-808) or biotinylated PLK1. The immobilization of TTK was performed as described in Maia et al. Annals of Oncology, 2015; 26:2180-2192. The immobilization of biotinylated PLKI was performed as described in Willemsen-Seegers et al. Journal of Molecular Biology, 2017; 429:574-586. The subsequent single cycle kinetic assays were performed at 22° C. using a compound concentration gradient of 1, 3.6, 10, 31.6 and 100 nM for TTK and 10, 31.6, 100, 316 and 1000 nM for PLK1, a contact time of 100 s and a flow rate of […]. The dissociation period was 1200-1800 s and a correction for an unstable surface using a blank run with buffer was performed.

MDA-MB-231 tumor cells = assay: MDA-MB-231 TNBC xenograft study
Description: Female NCr nu/nu nude mice (CharlesRiver laboratories) of 8-12 weeks of age were subcutaneously (s.c.) inoculated in the flank with 5×10^6 MDA-MB-231 tumor cells. Randomization into treatment groups (8 mice per group) was made when the mean tumor size was 100-150 mm3.
Body weights and tumor volumes were determined at least twice per week by measuring two dimensions with calipers and applying the formula “V=(L×W2)/2”, where V is the tumor volume, and L and W are the tumor length and width respectively. […] Mice were also culled if the BWL was determined to be >15% for 3 consecutive days. Any mice with >10% BWL received a dosing holiday until the BWL returned to <10%. All animal protocols were reviewed and approved by the relevant local committees in USA (IACUC) where the studies were performed.

Sequence of biotinylated PLK1 (P53350 whole entry, the tested form may be a part): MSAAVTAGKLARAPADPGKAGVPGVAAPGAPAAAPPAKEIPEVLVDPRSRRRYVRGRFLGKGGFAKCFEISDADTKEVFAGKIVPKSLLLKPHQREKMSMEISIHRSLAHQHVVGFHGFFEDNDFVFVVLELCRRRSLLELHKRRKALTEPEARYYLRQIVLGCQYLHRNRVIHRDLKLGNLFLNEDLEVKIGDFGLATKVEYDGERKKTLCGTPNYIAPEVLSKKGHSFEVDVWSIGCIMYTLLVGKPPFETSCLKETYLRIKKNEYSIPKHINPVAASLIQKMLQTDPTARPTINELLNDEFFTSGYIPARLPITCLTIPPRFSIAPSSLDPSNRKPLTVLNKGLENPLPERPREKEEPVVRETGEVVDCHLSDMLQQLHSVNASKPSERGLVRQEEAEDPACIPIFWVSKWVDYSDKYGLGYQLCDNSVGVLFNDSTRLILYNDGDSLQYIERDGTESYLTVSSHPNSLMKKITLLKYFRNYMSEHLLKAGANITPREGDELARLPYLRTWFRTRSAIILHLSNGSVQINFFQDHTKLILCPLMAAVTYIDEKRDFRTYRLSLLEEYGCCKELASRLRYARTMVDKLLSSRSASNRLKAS

Compound: COc1cc(N2CCNCC2)ccc1Nc1ncc2c(n1)-n1ccc(C(=O)Nc3c(C)cccc3C)c1CC2 [compound of formula (I)]
- target-residency on PLK1 (biotinylated PLK1): just a few minutes
- Tumor-free (%) (cured based on pathological analysis) (MDA-MB-231 tumor cells; 25 mg/kg, QW, IV): 25%
- Tumor-free (pathological evaluation) (MDA-MB-231 tumor cells; 25 mg/kg, QW, IV, mouse 2 and 3): no detectable residual tumor cells; also recorded: no neoplastic epithelial cells (residual tumor cells) were observed
- Tumor-free (pathological evaluation) (MDA-MB-231 tumor cells; 25 mg/kg, QW, IV, mouse 2 and 3, listed as Formula (I)): Yes
- Tumor-free (pathological evaluation) (MDA-MB-231 tumor cells; 25 mg/kg, QW, IV, mouse 8): two small aggregates of neoplastic cells at the inoculation site; also recorded: still displayed some neoplastic tissue
- Tumor-free (pathological evaluation) (MDA-MB-231 tumor cells; 25 mg/kg, QW, IV, mouse 8, listed as Formula (I)): No
- local finding leading to treatment stop at Day-30 (MDA-MB-231 tumor cells; 2QW MTD i.v. dosing, repeated IV-injections): tail vein irritations (scabbing)
- efficacy of 0.5×MTD i.v. dosing versus MTD daily oral dosing (MDA-MB-231 tumor cells; FIG. 3 and FIG. 4): equipotent efficacy
- animals with no measurable/palpable tumor mass (MDA-MB-231 tumor cells; QW MTD i.v. until Day-98, observed Day-80 to Day-125, two of eight animals (FIG. 3 study)): 25%
- residual tumor cells by H&E (two animals without palpable tumor) (MDA-MB-231 tumor cells; QW MTD i.v., FIG. 3 study, Day-125): tumor-free
- efficacy of MTD i.v. dosing versus MTD oral daily treatment (MDA-MB-231 tumor cells; QW and 2QW i.v., FIG. 3 and FIG. 4): far superior
- drug-related animal deaths (MDA-MB-231 tumor cells; all i.v. QW and 2QW treatments, FIG. 1): no drug-related animal deaths recorded
- body weight loss (MDA-MB-231 tumor cells; dosing at the MTD, i.v., FIG. 1): ≤ 10%
- anti-tumor effect (MDA-MB-231 tumor cells; i.v. MTD-dosing (QW 25 mg/kg, 2QW 12.5 mg/kg), FIG. 1): tumor stasis and tumor regressions were observed
- tolerability (MDA-MB-231 tumor cells; mouse, in vivo): relatively well tolerated, with no animal deaths
- tumor volume of three of eight tumors after treatment cessation (MDA-MB-231 tumor cells; weekly i.v. MTD group, 20 days observation after cessation on D100): ≤ 6 mm3
